38 compounds from US10544143B2, “4-azaindole compounds” (BRISTOL-MYERS SQUIBB COMPANY, priority 2017, dated 2020) can be followed below.

In general, IC50 refers to the concentration that inhibits the measured activity by half.

In one experiment the target is human TLR9 (Homo sapiens (Human), UniProt Q9NR96). Nature of the experiment: TLR9 inhibition reporter assay (HEK-Blue SEAP). (In a reporter assay the amount or activity of a reporter protein is the signal.);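 further: SEAP driven by an IFN-β minimal promoter with NF-κB and AP-1 sites, read after 22 h, compounds dosed 0.05 nM–50 µM, inhibition scaled between agonist plus DMSO and reference-inhibitor wells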
Chain of human TLR9 (Q9NR96 26-1032): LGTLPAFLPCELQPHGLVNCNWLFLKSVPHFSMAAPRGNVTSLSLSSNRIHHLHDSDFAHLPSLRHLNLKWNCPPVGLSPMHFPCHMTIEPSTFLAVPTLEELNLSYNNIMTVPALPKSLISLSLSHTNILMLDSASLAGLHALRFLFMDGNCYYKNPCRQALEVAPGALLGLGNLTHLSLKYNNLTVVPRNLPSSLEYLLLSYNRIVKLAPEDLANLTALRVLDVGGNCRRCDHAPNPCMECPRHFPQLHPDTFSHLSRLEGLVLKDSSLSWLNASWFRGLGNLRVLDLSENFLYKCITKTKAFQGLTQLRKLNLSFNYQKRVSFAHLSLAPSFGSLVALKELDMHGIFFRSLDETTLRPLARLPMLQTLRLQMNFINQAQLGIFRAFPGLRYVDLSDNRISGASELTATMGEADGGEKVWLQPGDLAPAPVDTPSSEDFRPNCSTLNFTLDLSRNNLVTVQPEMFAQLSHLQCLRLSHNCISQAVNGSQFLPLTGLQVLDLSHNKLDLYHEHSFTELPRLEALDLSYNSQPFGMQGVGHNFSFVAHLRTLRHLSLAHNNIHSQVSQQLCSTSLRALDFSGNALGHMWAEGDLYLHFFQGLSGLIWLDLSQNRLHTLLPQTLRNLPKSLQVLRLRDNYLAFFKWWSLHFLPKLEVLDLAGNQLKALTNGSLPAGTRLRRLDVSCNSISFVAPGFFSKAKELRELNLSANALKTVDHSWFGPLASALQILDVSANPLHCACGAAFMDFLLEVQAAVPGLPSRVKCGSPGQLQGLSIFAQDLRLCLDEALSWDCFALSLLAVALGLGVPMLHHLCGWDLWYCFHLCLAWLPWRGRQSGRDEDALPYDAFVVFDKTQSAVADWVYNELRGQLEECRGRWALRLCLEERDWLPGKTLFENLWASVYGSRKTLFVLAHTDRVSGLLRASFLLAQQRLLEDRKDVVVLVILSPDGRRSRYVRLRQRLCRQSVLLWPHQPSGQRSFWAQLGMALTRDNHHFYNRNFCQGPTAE
Another experiment addresses human TLR8 (Homo sapiens (Human), UniProt Q9NR97). Nature of the experiment: TLR8 inhibition reporter assay (HEK-Blue SEAP).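 Further: SEAP driven by IFN-β minimal promoter carrying NF-κB and AP-1 sites, compounds dosed 0.05 nM to 50 µM for 22 h, inhibition scaled between agonist-plus-DMSO and reference-inhibitor wells.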
In another experiment the target is human TLR7 (Homo sapiens (Human), UniProt Q9NYK1). The experiment is described as follows: TLR7 inhibition reporter assay (HEK-Blue SEAP). The format is cell-based.
Chain of human TLR7 (Q9NYK1 27-1049): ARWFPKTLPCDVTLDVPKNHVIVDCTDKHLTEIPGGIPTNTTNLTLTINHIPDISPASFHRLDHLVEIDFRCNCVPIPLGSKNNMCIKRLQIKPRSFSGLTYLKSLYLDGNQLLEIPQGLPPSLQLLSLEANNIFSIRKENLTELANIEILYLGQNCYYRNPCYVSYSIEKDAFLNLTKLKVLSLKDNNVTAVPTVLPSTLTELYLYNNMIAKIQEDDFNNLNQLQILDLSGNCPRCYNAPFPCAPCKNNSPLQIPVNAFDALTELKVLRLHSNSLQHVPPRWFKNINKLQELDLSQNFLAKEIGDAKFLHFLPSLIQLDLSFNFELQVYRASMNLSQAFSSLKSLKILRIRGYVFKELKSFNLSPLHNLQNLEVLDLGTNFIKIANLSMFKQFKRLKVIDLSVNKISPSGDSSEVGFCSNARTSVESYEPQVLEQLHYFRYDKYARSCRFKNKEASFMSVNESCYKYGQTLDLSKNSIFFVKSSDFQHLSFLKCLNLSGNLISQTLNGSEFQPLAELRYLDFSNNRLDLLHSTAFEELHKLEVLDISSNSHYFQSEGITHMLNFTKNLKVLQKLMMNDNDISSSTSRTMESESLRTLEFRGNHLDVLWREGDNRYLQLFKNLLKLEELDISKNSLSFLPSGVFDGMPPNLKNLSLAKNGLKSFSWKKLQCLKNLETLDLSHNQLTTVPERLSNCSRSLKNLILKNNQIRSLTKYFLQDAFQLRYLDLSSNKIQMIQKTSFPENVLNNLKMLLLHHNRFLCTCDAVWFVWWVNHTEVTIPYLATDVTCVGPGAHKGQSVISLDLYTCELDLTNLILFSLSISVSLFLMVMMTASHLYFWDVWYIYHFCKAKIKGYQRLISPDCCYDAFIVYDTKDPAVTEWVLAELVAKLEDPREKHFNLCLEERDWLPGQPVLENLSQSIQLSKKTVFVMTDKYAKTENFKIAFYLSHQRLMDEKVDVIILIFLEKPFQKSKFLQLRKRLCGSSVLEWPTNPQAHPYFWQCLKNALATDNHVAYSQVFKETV
Setting [1] is: read-out: TLR9 IC50, HEK-Blue cells overexpressing human TLR9, ODN2006 5 nM stimulation, SEAP reporter.
Where [2] appears, read: read-out: TLR8 IC50, HEK-Blue cells overexpressing human TLR8, R848 15.9 μM stimulation, SEAP reporter.
The mark [3] stands for this setting: HEK-Blue cells overexpressing human TLR7, gardiquimod 7.5 μM stimulation, SEAP reporter.
The mark [4] stands for this setting: read-out: TLR9 IC50, HEK-Blue human TLR9 cells, ODN2006 5 nM.
Where [5] appears, read: read-out: TLR8 IC50, HEK-Blue human TLR8 cells, R848 15.9 μM.
Where [6] appears, read: HEK-Blue human TLR7 cells, gardiquimod 7.5 μM.
The mark [7] stands for this setting: TLR9 IC50, HEK-Blue human TLR9 cells, ODN2006 5 nM.
The mark [8] stands for this setting: TLR8 IC50, HEK-Blue human TLR8 cells, R848 15.9 μM.
The mark [9] stands for this setting: read-out: TLR9 IC50, HEK-Blue cells overexpressing human TLR9, SEAP reporter, ODN2006 5 nM.
The mark [10] stands for this setting: read-out: TLR8 IC50, HEK-Blue cells overexpressing human TLR8, SEAP reporter, R848 15.9 μM.
The mark [11] stands for this setting: HEK-Blue cells overexpressing human TLR7, SEAP reporter, gardiquimod 7.5 μM.

Like-named read-outs stand apart in the source and are kept apart here.

Chain of human TLR8 (Q9NR97 27-1041): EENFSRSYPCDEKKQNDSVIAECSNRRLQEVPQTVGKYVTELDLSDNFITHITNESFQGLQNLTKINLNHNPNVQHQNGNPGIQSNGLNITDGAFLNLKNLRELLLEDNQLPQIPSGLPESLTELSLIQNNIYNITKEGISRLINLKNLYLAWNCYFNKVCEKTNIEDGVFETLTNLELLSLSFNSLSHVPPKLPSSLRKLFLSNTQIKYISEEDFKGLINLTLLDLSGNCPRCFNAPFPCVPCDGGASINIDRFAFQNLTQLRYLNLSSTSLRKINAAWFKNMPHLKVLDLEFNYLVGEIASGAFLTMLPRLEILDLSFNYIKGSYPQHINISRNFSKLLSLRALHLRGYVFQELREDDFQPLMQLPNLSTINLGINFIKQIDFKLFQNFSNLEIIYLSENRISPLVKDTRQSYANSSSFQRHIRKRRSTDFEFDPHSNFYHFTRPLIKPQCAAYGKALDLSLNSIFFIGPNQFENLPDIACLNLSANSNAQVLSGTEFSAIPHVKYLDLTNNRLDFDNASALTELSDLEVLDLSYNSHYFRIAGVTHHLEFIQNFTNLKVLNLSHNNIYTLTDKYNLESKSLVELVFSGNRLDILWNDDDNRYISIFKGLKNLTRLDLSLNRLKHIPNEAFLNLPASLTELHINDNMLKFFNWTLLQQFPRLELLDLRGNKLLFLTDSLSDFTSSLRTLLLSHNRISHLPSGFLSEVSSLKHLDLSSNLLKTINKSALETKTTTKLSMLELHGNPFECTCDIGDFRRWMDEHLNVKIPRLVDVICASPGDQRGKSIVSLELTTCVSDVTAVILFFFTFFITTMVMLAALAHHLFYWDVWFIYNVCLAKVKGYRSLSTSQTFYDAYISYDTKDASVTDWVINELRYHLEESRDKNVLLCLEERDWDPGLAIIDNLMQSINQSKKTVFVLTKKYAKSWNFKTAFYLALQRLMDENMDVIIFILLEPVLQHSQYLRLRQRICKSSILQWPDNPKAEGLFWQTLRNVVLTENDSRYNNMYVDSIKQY
Protocol for human TLR9: HEK-Blue™-cells (Invivogen) overexpressing human TLR7, TLR8 or TLR9 receptors were used for screening inhibitors of these receptors using an inducible SEAP (secreted embryonic alkaline phosphatase) reporter gene under the control of the IFN-β minimal promoter fused to five NF-κB and AP-1-binding sites. Briefly, cells are seeded into Greiner 384 well plates (15000 cells per well for TLR7, 20,000 for TLR8 and 25,000 for TLR9) and then treated with test compounds in DMSO to yield a final dose response concentration range of 0.05 nM-50 μM. After a 30 minute compound pre-treatment at room temperature, the cells are then stimulated with a TLR7 ligand (gardiquimod at a final concentration of 7.5 μM), TLR8 ligand (R848 at a final concentration of 15.9 μM) or TLR9 ligand (ODN2006 at a final concentration of 5 nM) to activate NF-κB and AP-1 which induce the production of SEAP. After a 22 hour incubation at 37° C., 5% CO2, SEAP levels are determined with the addition of HEK-Blue™ Detection reagent (Invivogen), a cell culture medium that allows for detection of SEAP, according to manufacturer's specifications.

Regarding `COc1cc(-c2[nH]c3ccc(N4CCN(CC#N)CC4)nc3c2C(C)C)cn2ncnc12` [Example 94], the IC50 was determined as 9.35 µM on human TLR9 (setting [1]), 1.4 nM at human TLR8 (setting [2]) and 1 nM against human TLR7 (setting [3]).
`Cc1c(-c2[nH]c3ccc(N4CCN(CCCS(C)(=O)=O)C[C@H]4C)nc3c2C(C)C)cn2ncnc2c1C` [Example 806]: the figures for the IC50 at human TLR9 (setting [4]), on human TLR8 (setting [5]) and on human TLR7 (setting [6]) were 29.4 µM, 1.1 nM and 1.1 nM, respectively.
For `[2H]C([2H])([2H])NCC(=O)N1CCN(c2ccc3[nH]c(-c4cn5ncnc5c(C)c4C)c(C(C)C)c3n2)CC1` [Example 952], the IC50 against human TLR9 (setting [7]) is 7.86 µM; against human TLR8 (setting [8]), 0.7 nM; against human TLR7 (setting [6]) it was 1.8 nM.
As to `Cc1cc(-c2[nH]c3ccc(C4CCNCC4)nc3c2C(C)C)cn2nnnc12` [Example 517], the results for the IC50 on human TLR9 (setting [9]), on human TLR8 (setting [10]) and on human TLR7 (setting [11]) were 0.15 µM, 6 nM and 1.1 nM, respectively.
Regarding `COc1cc(-c2[nH]c3ccc(C4CC(N(C)CC(=O)N(C)C)C4)nc3c2C(C)C)cn2ncnc12` (stereo not drawn) [Example 627], the IC50 on human TLR9 (setting [9]) is 4.5 µM; on human TLR8 (setting [10]), 18 nM; at human TLR7 (setting [11]), 7.9 nM.
The like results for `COc1cc(-c2[nH]c3ccc(OCC4CN(CC(C)(C)O)C4)nc3c2C(C)C)cn2ncnc12` [Example 599] were, in that order, 3.05 µM, 4.8 nM and 2.7 nM.
As to `Cc1c(-c2[nH]c3ccc(C4CCC(N(C)C5COC5)CC4)nc3c2C(C)C)cn(C)c(=O)c1C` (stereo not drawn) [Example 249], the IC50 at human TLR9 (setting [1]) is 5.98 µM; at human TLR8 (setting [2]), 7.3 nM; at human TLR7 (setting [3]) it was 25 nM.
On the same counts, the results for `COc1cc(-c2[nH]c3cc(C)c(C4CCC(N)CC4)nc3c2C(C)C)cn2ncnc12` (stereo not drawn) [Example 318] are 1.06 µM, 2.1 nM and 0.17 nM.
On the same counts, the results for `Cc1c(-c2[nH]c3ccc(N4CCCC(NC5COC5)C4)nc3c2C(C)C)cn2ncnc2c1C` (stereo not drawn) [Example 86] are above 50 µM, 2.9 nM and 7.5 nM.
The like results for `CNC1CCC(c2ccc3[nH]c(-c4cn(C)c5ncccc45)c(C(C)C)c3n2)CC1` (stereo not drawn) [Example 302] were, in that order, 0.739 µM, 4.9 nM and 0.74 nM.
For `COc1cc(-c2[nH]c3ccc(C4CCC(N5CC6(C5)CS(=O)(=O)C6)CC4)nc3c2C(C)C)cn2ncnc12` (stereo not drawn) [Example 248], the IC50 was 1.79 µM at human TLR9 (setting [1]), 13 nM at human TLR8 (setting [2]) and 1.5 nM against human TLR7 (setting [3]).
On the same counts, the results for `Cc1cc(-c2[nH]c3ccc(C4CCC(NC5COC5)CC4)nc3c2C(C)C)cn2ncnc12` (stereo not drawn) [Example 279] are 1.82 µM, 1.4 nM and 0.31 nM.
As to `CCN(CCS(C)(=O)=O)C1CCC(c2nc3c(C(C)C)c(-c4cn5ncnc5c(C)c4C)[nH]c3cc2F)CC1` (stereo not drawn) [Example 511], the IC50 on human TLR9 (setting [9]) is above 50 µM; on human TLR8 (setting [10]), 4.8 nM; against human TLR7 (setting [11]), 5.8 nM.
Turning to `COc1cc(-c2[nH]c3cc(C)c(C4CCC(N(C)CC(C)(C)C)CC4)nc3c2C(C)C)cn2ncnc12` (stereo not drawn) [Example 336], the IC50 at human TLR9 (setting [1]) was 3.44 µM; at human TLR8 (setting [2]), 48 nM; against human TLR7 (setting [3]), 2.8 nM.
For the compound `COc1cc(-c2[nH]c3ccc(N4CCN(CC5(C)COC5)CC4)nc3c2C(C)C)cn2ncnc12` [Example 102], the IC50 is above 50 µM on human TLR9 (setting [1]), 5.1 nM at human TLR8 (setting [2]) and 12 nM at human TLR7 (setting [3]).
Turning to `Cc1c(-c2[nH]c3ccc(N4CCN(CCC(N)=O)[C@H](C)C4)nc3c2C(C)C)cn2ncnc2c1C` [Example 852], the figures for the IC50 on human TLR9 (setting [4]), on human TLR8 (setting [5]) and against human TLR7 (setting [6]) were 16.2 µM, 0.82 nM and 5.2 nM, respectively.
Take `COc1cc(-c2[nH]c3ccc(N4CCN(CCC(C)C)CC4)nc3c2C(C)C)cn2ncnc12` [Example 110]: the IC50 at human TLR9 (setting [1]) is 4.54 µM; on human TLR8 (setting [2]), 0.76 nM; against human TLR7 (setting [3]) it was 1.9 nM.
Consider `Cc1c(-c2[nH]c3ccc(N4CC5(CN(CCC#N)C5)C4)nc3c2C(C)C)cn2ncnc2c1C` [Example 1014], for which the results for the half-maximal inhibitory concentration (IC50) on human TLR9 (setting [4]), on human TLR8 (setting [5]) and against human TLR7 (setting [6]) were 21.9 µM, 26 nM and 21 nM, respectively.
With `Cc1c(-c2[nH]c3ccc(N4CC(N5CCS(=O)(=O)CC5)C4)nc3c2C(C)C)cn2ncnc2c1C` [Example 41], the IC50 at human TLR9 (setting [1]) is above 50 µM; on human TLR8 (setting [2]) it was 177 nM; at human TLR7 (setting [3]), 264 nM.
With `Cc1c(-c2[nH]c3ccc(N4C[C@H](C)N(C(=O)CCN(C)C)C[C@H]4C)nc3c2C(C)C)cn2ncnc2c1C` [Example 840], the IC50 at human TLR9 (setting [4]) stood at 7.4 µM; at human TLR8 (setting [5]) it was 1.5 nM; on human TLR7 (setting [6]) it was 0.38 nM.
Turning to `Cc1c(-c2[nH]c3ccc(C4CC(N(C)CCS(C)(=O)=O)C4)nc3c2C(C)C)cn2ncnc2c1C` (stereo not drawn) [Example 636], the IC50 is 21.6 µM on human TLR9 (setting [9]), 28 nM on human TLR8 (setting [10]) and 46 nM against human TLR7 (setting [11]).
Regarding `COc1cc(-c2[nH]c3ccc(C4CCC(N5CC6(CCO6)C5)CC4)nc3c2C(C)C)cn2ncnc12` (stereo not drawn) [Example 1074], the IC50 worked out at 2.13 µM at human TLR9 (setting [4]), 1.9 nM on human TLR8 (setting [5]) and 0.59 nM on human TLR7 (setting [6]).
In the case of `COc1cc(-c2[nH]c3cc(F)c(C4CCC(N5CC6(COC6)C5)CC4)nc3c2C(C)C)cn2ncnc12` (stereo not drawn) [Example 343], the IC50 came out at 1.25 µM at human TLR9 (setting [1]), 0.54 nM on human TLR8 (setting [2]) and 0.19 nM at human TLR7 (setting [3]).
On the same counts, the results for `Cc1c(-c2[nH]c3ccc(N4CCN(C)CC4)nc3c2C(C)C)cn2ncnc2c1C` [Example 96, 6-(3-isopropyl-5-(4-methylpiperazin-1-yl)-1H-pyrrolo[3,2-b]pyridin-2-yl)-7,8-dimethyl-[1,2,4]triazolo[1,5-a]pyridine] are 9.43 µM, 0.28 nM and 1.5 nM.
For `CNC(=O)CN(C)C1CCC(c2ccc3[nH]c(-c4cn5ncnc5c(C)c4C)c(C(C)C)c3n2)CC1` (stereo not drawn) [Example 422], the figures for the IC50 at human TLR9 (setting [9]), at human TLR8 (setting [10]) and at human TLR7 (setting [11]) were 6.24 µM, 35 nM and 15 nM, respectively.
Regarding `Cc1c(-c2[nH]c3ccc(N4C[C@@H](C)N(C(=O)CN(C)C(C)(C)C)C[C@@H]4C)nc3c2C(C)C)cn2ncnc2c1C` [Example 911], the IC50 on human TLR9 (setting [4]) stood at 7.02 µM; at human TLR8 (setting [5]), 1.5 nM; on human TLR7 (setting [6]) it was 0.68 nM.
For `Cc1c(-c2[nH]c3ccc(N4CCN(CCC(N)=O)CC4)nc3c2C(C)C)cn2ncnc2c1C` [Example 149], the IC50 amounted to 19.5 µM at human TLR9 (setting [1]), 0.4 nM on human TLR8 (setting [2]) and 9.3 nM on human TLR7 (setting [3]).
Turning to `Cc1c(-c2[nH]c3ccc(N4C[C@H]5C[C@@H]4CN5)nc3c2C(C)C)cn2ncnc2c1C` [Example 981], the results for the IC50 on human TLR9 (setting [4]), on human TLR8 (setting [5]) and against human TLR7 (setting [6]) were 3.07 µM, 0.51 nM and 0.95 nM, respectively.
The like results for `Cc1c(-c2[nH]c3ccc(N4CCNC(C)C4C)nc3c2C(C)C)cn2ncnc2c1C` (stereo not drawn) [Example 977] were, in that order, 8.6 µM, 2.1 nM and 1.4 nM.
Regarding `COc1cc(-c2[nH]c3cc(C)c(C4CCN(CC(=O)N(C)C)CC4)nc3c2C(C)C)cn2ncnc12` [Example 584], the IC50 at human TLR9 (setting [9]) was 2.01 µM; at human TLR8 (setting [10]) it was 29 nM; on human TLR7 (setting [11]), 0.24 nM.
With `CNC1CCC(c2ccc3[nH]c(-c4cn(CCO)c5ncccc45)c(C(C)C)c3n2)CC1` (stereo not drawn) [Example 299], the results for the IC50 at human TLR9 (setting [1]), at human TLR8 (setting [2]) and on human TLR7 (setting [3]) were 0.68 µM, 6 nM and 10 nM, respectively.
Take `COc1cc(-c2[nH]c3ccc(C4CCC(N5CCC(F)C5)CC4)nc3c2C(C)C)cn2ncnc12` (stereo not drawn) [Example 1067]: the IC50 on human TLR9 (setting [4]) came to 5.4 µM; on human TLR8 (setting [5]) it was 4.5 nM; on human TLR7 (setting [6]), 1 nM.
As for `COc1cc(-c2[nH]c3cc(F)c(C4CCC(NCC5(C)COC5)CC4)nc3c2C(C)C)cn2ncnc12` (stereo not drawn) [Example 341], the values for the IC50 at human TLR9 (setting [1]), at human TLR8 (setting [2]) and at human TLR7 (setting [3]) were 2.64 µM, 0.32 nM and 0.12 nM, respectively.
Consider `Cc1c(-c2[nH]c3ccc(N4CCN(C(=O)CNCC5CC5)CC4)nc3c2C(C)C)cn2ncnc2c1C` [Example 161], for which the IC50 at human TLR9 (setting [1]) worked out at 5.92 µM; on human TLR8 (setting [2]), 0.92 nM; at human TLR7 (setting [3]) it was 1.4 nM.
For `Cc1c(-c2[nH]c3ccc(N4CCN(C(=O)CN(C(C)C)C(C)C)CC4)nc3c2C(C)C)cn2ncnc2c1C` [Example 883], the IC50 is 12.5 µM on human TLR9 (setting [4]), 2.3 nM on human TLR8 (setting [5]) and 7.4 nM against human TLR7 (setting [6]).
Turning to `CC(C)c1c(-c2cc(CO)c3ncnn3c2)[nH]c2ccc(N3CCC(N)CC3)nc12` [Example 79], the IC50 at human TLR9 (setting [1]) came out at 9.72 µM; on human TLR8 (setting [2]) it was 355 nM; on human TLR7 (setting [3]) it was 373 nM.
In the case of `COc1cc(-c2[nH]c3ccc(OCC4CN(C)C4)nc3c2C(C)C)cn2ncnc12` [Example 608, 6-(3-isopropyl-5-((1-methylazetidin-3-yl)methoxy)-1H-pyrrolo[3,2-b]pyridin-2-yl)-8-methoxy-[1,2,4]triazolo[1,5-a]pyridine], the IC50 at human TLR9 (setting [9]) was found to be 1.71 µM; on human TLR8 (setting [10]), 6.1 nM; at human TLR7 (setting [11]), 1.1 nM.
As to `[2H]C([2H])([2H])N(CC(=O)N1CCN(c2ccc3[nH]c(-c4cn5ncnc5c(C)c4C)c(C(C)C)c3n2)CC1)C([2H])([2H])[2H]` (single isomer, unassigned) [Example 831], the IC50 against human TLR9 (setting [7]) was found to be 8.55 µM; on human TLR8 (setting [8]) it was 2.3 nM; against human TLR7 (setting [6]), 1.5 nM.
